Test [1] deals with T1, STING WT: His-TVMV-S-hSTING(155-341)-H232R (Homo sapiens, UniProt Q86WV6, H232R).
T1 construct: His-TVMV-S-hSTING(155-341)-H232R
Briefly: STING HTRF binding assay (time resolved FRET competition), STING WT. As to conditions: 20 nM His-tagged STING cytoplasmic domain, 200 nM fluorescein-labeled cGAMP analog probe, one hour; read-out: HTRF Binding Assays IC50 STING WT. The method, boiled down: (§1)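 Binding is measured by time-resolved FRET in PBS, 0.1% BSA, 0.005% Tween-20, with 20 nM His-STING and a fluorescein cGAMP-analog probe at 200 nM (WT) or 40 nM (AQ). One-hour incubation; IC50 from 11 concentrations.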
(Time-resolved FRET reads energy transfer from a long-lived donor to a nearby acceptor.)

Test [2] deals with T2, STING AQ: His-TVMV-S-hSTING(155-341)-G230A-R293Q (Homo sapiens, UniProt Q86WV6, G230A/H232R/R293Q).
T2 construct: His-TVMV-S-hSTING(155-341)-G230A-R293Q
Briefly: STING HTRF binding assay (time resolved FRET competition), STING AQ. As to conditions: 20 nM His-tagged STING cytoplasmic domain, 40 nM fluorescein-labeled cGAMP analog probe, one hour; read-out: HTRF Binding Assays IC50 STING AQ. The procedure, abridged: as §1

For a further test, the system named is NFkB. Put plainly: STING THP1 reporter assay, NF-κB pathway (SEAP, QUANTI-Blue). Format: cell-based. The following applies: THP1-Dual cells, 10% human plasma, 100% activation = 100 μM cGAMP. The method, boiled down: (§2)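 Activity is expressed relative to DMSO-only wells and 100% activation by 100 μM cGAMP. Reporter cells in RPMI plus 10% human plasma received serially diluted compound, starting at 100 μM final, for 20 h; secreted SEAP was read at OD620 with QUANTI-Blue, Lucia luminescence with QUANTI-Luc.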
For orientation: A reporter such as luciferase makes a cellular process visible.

A further test deals with IRF3. Briefly: STING THP1 reporter assay, IRF pathway (secreted luciferase Lucia, QUANTI-Luc). Format: cell-based. As to conditions: THP1-Dual cells, 10% human plasma, 100% activation = 100 μM cGAMP, luciferase readout, read-out: THP1 Reporter Assays EC50 IRF3. The procedure, abridged: as §2
Setting [3] is: 20 hours, SEAP readout OD620, read-out: THP1 Reporter Assays EC50 NFkB.
The mark [4] stands for this setting: Homo sapiens, THP-1, 20 h, SEAP readout OD620, read-out: THP1 Reporter Assays EC50 NFkB.

Experimental findings from patent US10744150B2, “Cyclic dinucleotides as anticancer agents” (BRISTOL-MYERS SQUIBB COMPANY, priority 2017, dated 2020) are described below.

Read-outs that look alike come from different tables or passages of the source.

T1 sequence (Q86WV6 with tags, fused parts or gaps H232R): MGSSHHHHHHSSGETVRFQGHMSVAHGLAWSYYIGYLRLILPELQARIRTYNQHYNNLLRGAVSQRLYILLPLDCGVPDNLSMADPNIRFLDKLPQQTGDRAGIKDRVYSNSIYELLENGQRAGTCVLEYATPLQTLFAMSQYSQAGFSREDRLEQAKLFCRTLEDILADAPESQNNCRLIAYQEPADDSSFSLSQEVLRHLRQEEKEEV
T2 sequence (Q86WV6 with tags, fused parts or gaps G230A/H232R/R293Q): as the sequence (Q86WV6 with tags, fused parts or gaps H232R) above, with G99A, R162Q counted along it

As for `NC(=O)c1cccc2c1nnn2[C@@H]1C[C@@H]2COP(O)(=S)O[C@H]3[C@@H](F)[C@H](n4cnc5c(N)ncnc54)O[C@@H]3COP(O)(=S)OC[C@H]21` (single isomer, unassigned) [Example 13-3], the figures for the IC50 in test [1] and in test [2] were above 100 µM and 3.8 µM, respectively. Further, the 50% effective concentration (EC50) in the test on NFkB (setting [3]) and in the test on IRF3 (20 hours) was above 100 µM in each case.
Take `Nc1ncnc2c1ncn2[C@@H]1C[C@@H]2COP(O)(=S)O[C@H]3[C@@H](F)[C@H](n4cnc5c(=O)[nH]c6nccn6c54)O[C@@H]3COP(O)(=S)OC[C@H]21` (single isomer, unassigned) [Example 9-4]: the 50% inhibitory concentration (IC50) (usually the concentration that inhibits the measured activity by half) in test [1] turned out to be 1.4 µM; in test [2] it was 0.08 µM. Further, the concentration for a half-maximal effect (EC50) in the test on NFkB (setting [3]) and in the test with IRF3 (20 hours) was above 100 µM in each case.
On to `Nc1ncnc2c1ncn2[C@@H]1O[C@@H]2COP(O)(=S)OC[C@@H]3[C@@H](COP(O)(=S)O[C@H]2[C@H]1F)C[C@H]3n1cnc2c(O)nc3nccn3c21` (single isomer, unassigned) [Example 3-3], for which the figures for the 50% inhibitory concentration (IC50) in test [1] and in test [2] were 0.18 µM and 0.14 µM, respectively. The EC50 (usually the midpoint of the concentration-response curve) with NFkB (setting [3]) was 58 µM; in the test with IRF3 (20 hours), 33 µM.
The like results for `Nc1ncnc2c1ncn2[C@@H]1C[C@@H]2COP(=O)(S)O[C@H]3[C@@H](F)[C@H](n4cnc5c(N)ncnc54)O[C@@H]3COP(=O)(S)OC[C@H]21` (single isomer, unassigned) [Example 1-2] were, in that order, 0.09 µM, 0.01 µM, 6 µM and 3 µM.
The like results for `Nc1ncnc2c1ncn2[C@@H]1C[C@@H]2COP(O)(=S)O[C@H]3[C@@H](F)[C@H](n4cnc5c(=O)[nH]c6nccn6c54)O[C@@H]3COP(O)(=S)OC[C@H]21` (single isomer, unassigned) [Example 9-2] were, in that order, 4.3 µM, 0.92 µM, above 100 µM and above 100 µM.
The like results for `Nc1ncnc2c1ncn2[C@@H]1C[C@@H]2COP(O)(=S)O[C@H]3[C@H](F)[C@H](n4ccc5c(Cl)ncnc54)O[C@@H]3COP(O)(=S)OC[C@H]21` (single isomer, unassigned) [Example 7-3] were, in that order, above 100 µM, 61.1 µM, above 100 µM and above 100 µM.
`Nc1ncnc2c1ncn2[C@@H]1C[C@@H]2COP(O)(=S)O[C@H]3C[C@H](n4ccc5c(Cl)ncnc54)O[C@@H]3COP(=O)(S)OC[C@H]21` (single isomer, unassigned) [Example 6-1]: the half-maximal inhibitory concentration (IC50) in test [1] is above 100 µM; in test [2] it was 38.9 µM. Further, the EC50 with NFkB (setting [4]) is above 100 µM; in the test with IRF3 (Homo sapiens, THP-1, 20 h) it was above 100 µM.
In the case of `Nc1ncnc2c1ncn2[C@@H]1O[C@@H]2COP(O)(=S)OC[C@@H]3[C@@H](COP(O)(=S)O[C@H]2[C@H]1F)C[C@H]3n1cnc2c(=O)[nH]cnc21` (single isomer, unassigned) [Example 5-3], the concentration for half-maximal inhibition (IC50) was 2.7 µM in test [1] and 0.04 µM in test [2]. Also, the EC50 in the test with NFkB (setting [3]) and in the test with IRF3 (20 hours) was above 100 µM each time.
For the compound `Nc1ncnc2c1ncn2[C@@H]1C[C@@H]2COP(O)(=S)O[C@@H]3[C@H](O)[C@@H](COP(O)(=S)OC[C@H]21)O[C@H]3n1cnc2c(N)ncnc21` (single isomer, unassigned) [Example 4-1], the IC50 is above 100 µM in test [1] and 2.8 µM in test [2]. The EC50 in the test with NFkB (setting [4]) was above 100 µM; in the test with IRF3 (Homo sapiens, THP-1, 20 h), above 100 µM.
On to `Nc1ncnc2c1ncn2[C@@H]1O[C@@H]2COP(O)(=S)OC[C@@H]3[C@@H](COP(O)(=S)O[C@H]2[C@H]1F)C[C@H]3n1cnc2c(O)nc3nccn3c21` (single isomer, unassigned) [Example 3-4], for which the IC50 came to 1 µM in test [1] and 0.09 µM in test [2]. Also, the EC50 in the test on NFkB (setting [3]) came to 40 µM; in the test with IRF3 (20 hours), 31 µM.
As for `NC(=O)c1cccc2c1nnn2[C@@H]1C[C@@H]2COP(O)(=S)O[C@H]3[C@@H](F)[C@H](n4cnc5c(N)ncnc54)O[C@@H]3COP(O)(=S)OC[C@H]21` (single isomer, unassigned) [Example 13-4], the results for the IC50 in test [1] and in test [2] were 3 µM and 0.05 µM, respectively. Besides, the concentration giving a half-maximal response (EC50) in the test on NFkB (setting [3]) is above 100 µM; in the test with IRF3 (20 hours) it was 86 µM.
Consider `Nc1ncnc2c1ncn2[C@@H]1C[C@@H]2COP(O)(=S)O[C@@H]3[C@H](O)[C@@H](COP(O)(=S)OC[C@H]21)O[C@H]3n1cnc2c(O)nc3nccn3c21` (single isomer, unassigned) [Example 15-1], for which the half-maximal inhibitory concentration (IC50) was 33.5 µM in test [1] and 4.4 µM in test [2]. In addition, the EC50 in the test on NFkB (setting [4]) is above 100 µM; in the test with IRF3 (Homo sapiens, THP-1, 20 h), above 100 µM.
Take `NC(=O)c1cccc2c1nnn2[C@@H]1O[C@@H]2COP(O)(=S)OC[C@@H]3[C@@H](COP(O)(=S)O[C@@H]1[C@@H]2F)C[C@H]3n1cnc2c(N)ncnc21` (single isomer, unassigned) [Example 11-2]: the concentration for half-maximal inhibition (IC50) in test [1] turned out to be 19.4 µM; in test [2], 1.4 µM. Besides, the EC50 with NFkB (setting [3]) and in the test on IRF3 (20 hours) was above 100 µM each time.
